Data on 3 molecules can be found in patent US20120122854A1, “Carbocyclic Fused Cyclic Amines” (priority 2005, published 2012).

T1 sequence (P00742 235-488 limits assumed): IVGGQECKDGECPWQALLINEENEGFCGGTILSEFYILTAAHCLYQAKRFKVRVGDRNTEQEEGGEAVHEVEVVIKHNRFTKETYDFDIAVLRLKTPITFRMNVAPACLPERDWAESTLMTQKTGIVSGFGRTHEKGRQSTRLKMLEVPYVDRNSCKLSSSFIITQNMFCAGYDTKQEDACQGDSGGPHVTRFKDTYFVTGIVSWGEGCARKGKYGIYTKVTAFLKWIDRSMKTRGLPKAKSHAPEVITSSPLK
T1 sequence (P00742 41-179 partner limits assumed): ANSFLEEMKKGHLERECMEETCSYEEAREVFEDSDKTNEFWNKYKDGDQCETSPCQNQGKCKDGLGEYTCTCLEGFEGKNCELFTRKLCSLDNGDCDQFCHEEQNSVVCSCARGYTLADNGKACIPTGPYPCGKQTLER

This experiment has as its target T1, human factor Xa (Homo sapiens, UniProt P00742).
T1 construct: purchased Enzyme Research Laboratories
As to the kind of experiment: Factor Xa chromogenic peptide substrate (S-2222) assay. In kind it is biochemical. The note with it: human factor Xa 3 nM, chromogenic substrate S-2222, pH 7.8, room temperature; apparent Ki from IC50 by Cheng-Prusoff. As for the experimental part:
Factor Xa activity was measured spectrophotometrically in microtiter plates in a final volume of 150 μl using the following conditions: Inhibition of human factor Xa (Enzyme Research Laboratories) was tested at an enzyme concentration of 3 nM using the chromogenic substrate S-2222 (Chromogenix AB, Mölndal, Sweden) at […]. The reaction kinetics of the enzyme and the substrate were linear with both time and the enzyme concentration. The inhibitors were dissolved in DMSO and tested at various concentrations up to 100 μM. The inhibitors were diluted using HNPT buffer consisting of HEPES100 mM, NaCl 140 mM, PEG 6000 0.1% and Tween 80 0.02%, pH 7.8. The cleavage of S-2222 by human factor Xa was followed at 405 nm for 5 minutes at room temperature. The velocity of the reaction was determined by the autoreader from the slope of the linear regression fit to 7 time points (1 minute). The initial velocity for each inhibitor concentration was determined by the slope of at least 4 time points in the linear phase by a linear regression fit […]. Apparent dissociation constants Ki were calculated according to Cheng and Prusoff [Cheng, Y. C.; Prusoff, W. H. Relationship between the inhibition constant (Ki) and the concentration of the inhibitor that causes 50 percent inhibition (IC50) of an enzyme reaction. Biochem. Pharmacol. 1973, 22, 3099-3108.] based on the IC50 and the respective Km, determined previously (Ki=IC50/(1+S/Km)). The Km for the substrate used was determined under the conditions of the test with at least 5 substrate concentrations ranging from 0.5 to 15 times Km. [Lottenberg R, Hall J A, Blinder M, Binder E P, Jackson C M., The action of thrombin on peptide p-nitroanilide substrates. Substrate selectivity and examination of hydrolysis under different reaction conditions. Biochim Biophys Acta. 1983 Feb. 15; 742(3):539-57]. According to Eadie [Eadie G. S. The inhibition of cholinesterase by physostigmine and prostigmine. J. Biol. Chem. 1942, 146, 85-93.], the Km for S-2222 amounted to 613 μM.
`O=C(Nc1ccc(-n2ccccc2=O)cc1)C1c2ccccc2CN1C(=O)Nc1ccc(Cl)cc1` (stereo in doubt) [Example 4, (S)-1,3-Dihydro-isoindole-1,2-dicarboxylic acid 2-[(4-chloro-phenyl)-amide]1-{[4-(2-oxo-2H-pyridin-1-yl)-phenyl]-amide}]: the Ki is 2 nM. The result for `O=C(NCC1CN(C(=O)Nc2ccc(-n3ccccc3=O)cc2F)c2cccc(Cl)c21)c1ccc(Cl)s1` (stereo not drawn) [Example 44, 4-Chloro-3-{[(5-chloro-thiophene-2-carbonyl)-amino]-methyl}-2,3-dihydro-indole-1-carboxylic acid [2-fluoro-4-(2-oxo-2H-pyridin-1-yl)-phenyl]-amide] reads 2 nM. As for `O=C(Nc1ccc(-n2ccccc2=O)cc1F)[C@H]1Cc2ccccc2CN1C(=O)Nc1ccc(Cl)cc1` [Example 25, (R)-3,4-Dihydro-1H-isoquinoline-2,3-dicarboxylic acid 2-[(4-chloro-phenyl)-amide]3-{[2-fluoro-4-(2-oxo-2H-pyridin-1-yl)-phenyl]-amide}], the figure is 2 nM.
